In US20230242530A1, “8-(AZETIDIN-1-YL)-[1,2,4]TRIAZOLO[1,5-A]PYRIDINYL COMPOUNDS, COMPOSITIONS AND METHODS OF USE THEREOF” (Genentech, Inc., priority 2016, published 2023):

How the values were obtained:
[1] = test system: JAK1-dependent STAT6 phosphorylation downstream of IL-13 stimulation in BEAS-2B cells; test: JAK1 pathway assay in cell lines: IL-13 p-STAT6 BEAS-2B; format: cell-based; details: BEAS-2B human bronchial epithelial cells, 1 hr compound, IL-13 15 min, MSD readout
Protocol: JAK1 Pathway Assay in Cell Lines was Carried Out as Follows:
Inhibitor potency (EC50) was determined in cell-based assays designed to measure JAK1 dependent STAT phosphorylation. As noted above, inhibition of IL-4, IL-13, and IL-9 signalling by blocking the Jak/Stat signaling pathway can alleviate asthmatic symptoms in pre-clinical lung inflammation models (Mathew et al., 2001, J Exp Med 193(9): 1087-1096; Kudlacz et. al., 2008, Eur J. Pharmacol 582(1-3): 154-161).
In one assay approach, TF-1 human erythroleukemia cells obtained from the American Type Culture Collection (ATCC; Manassas, Va.) were used to measure JAK1-dependent STAT6 phosphorylation downstream of IL-13 stimulation. Prior to use in the assays, TF-1 cells were starved of GM-CSF overnight in OptiMEM medium (Life Technologies, Grand Island, N.Y.) supplemented with 0.5% charcoal/dextran stripped fetal bovine serum (FBS), 0.1 mM non-essential amino acids (NEAA), and 1 mM sodium pyruvate. The assays were run in 384-well plates in serum-free OptiMEM medium using 300,000 cells per well. In a second assay approach, BEAS-2B human bronchial epithelial cells obtained from ATCC were plated at 100,000 cells per well of a 96-well plate one day prior to the experiment. The BEAS-2B assay was run in complete growth medium (bronchial epithelial basal medium plus bulletkit; Lonza; Basel, Switzerland).
Test compounds were serially diluted 1:2 in DMSO and then diluted 1:50 in medium just before use. Diluted compounds were added to the cells, for a final DMSO concentration of 0.2%, and incubated for 30 mi (for the TF-1 assay) or 1 hr (for the BEAS-2B assay) at 37 QC. Then, cells were stimulated with human recombinant cytokine at their respective EC90 concentrations, as previously determined for each individual lot. Cells were stimulated with IL-13 (R&D Systems, Minneapolis, Minn.) for 15 min at 37 °C. The TF-1 cell reactions were stopped by the direct addition of 10× lysis buffer (Cell Signaling Technologies, Danvers, Mass.), whereas the BEAS-2B cell incubations were halted by the removal of medium and addition of 1× lysis buffer. The resultant samples were frozen in the plates at −80 °C. Compound mediated inhibition of STAT6 phosphorylation was measured in the cell lysates using MesoScale Discovery (MSD) technology (Gaithersburg, Md.). EC50 values were determined as the concentration of compound required for 50% inhibition of STAT phosphorylation relative to that measured for the DMSO control.

[2] = target: T1, isolated recombinant JAK1 kinase domain (Homo sapiens, UniProt P23458); test: JAK enzyme assay, JAK1 kinase domain (Caliper LabChip); format: biochemical; details: 1.5 nM JAK1, ATP 25 μM, Morrison tight binding model
T1 construct: isolated recombinant JAK1 and JAK2 kinase domain
T1 sequence (P23458 875-1153 limits assumed): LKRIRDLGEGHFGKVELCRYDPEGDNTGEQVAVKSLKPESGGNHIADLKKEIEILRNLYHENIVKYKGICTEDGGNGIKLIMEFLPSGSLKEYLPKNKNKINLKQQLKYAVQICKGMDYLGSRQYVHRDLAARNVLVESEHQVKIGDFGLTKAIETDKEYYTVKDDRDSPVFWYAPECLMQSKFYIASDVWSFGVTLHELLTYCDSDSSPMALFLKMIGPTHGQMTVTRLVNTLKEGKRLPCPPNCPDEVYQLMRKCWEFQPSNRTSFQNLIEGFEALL
Protocol: (§1) JAK Enzyme Assays were Carried Out as Follows:
(§2) The activity of the isolated recombinant JAK1 and JAK2 kinase domain was measured by monitoring phosphorylation of a peptide derived from JAK3 (Val-Ala-Leu-Val-Asp-Gly-Tyr-Phe-Arg-Leu-Thr-Thr, fluorescently labeled on the N-terminus with 5-carboxyfluorescein) using the Caliper LabChip® technology (Caliper Life Sciences, Hopkinton, Mass.). […] Reactions were incubated at 22 °C in 384-well polypropylene microtiter plates for 30 minutes and then stopped by addition of 25 μL of an EDTA containing solution (100 mM HEPES buffer (pH 7.2), 0.015% Brij-35, 150 mM EDTA), resulting in a final EDTA concentration of 50 mM. After termination of the kinase reaction, the proportion of phosphorylated product was determined as a fraction of total peptide substrate using the Caliper LabChip® 3000 according to the manufacturer's specifications. Ki values were then determined using the Morrison tight binding model (Morrison, J. F., Biochim. Biophys. Acta. 185:269-296 (1969); William, J. W. and Morrison, J. F., Meth. Enzymol., 63:437-467 (1979)) modified for ATP-competitive inhibition [Ki=Ki,app/(1+[ATP]/Km,app)].

[3] = target: T2, isolated recombinant JAK2 kinase domain (Homo sapiens, UniProt O60674); test: JAK enzyme assay, JAK2 kinase domain (Caliper LabChip); format: biochemical; details: 0.2 nM JAK2, ATP 25 μM, Morrison tight binding model
T2 construct: isolated recombinant JAK1 and JAK2 kinase domain
T2 sequence (O60674 849-1124 limits assumed): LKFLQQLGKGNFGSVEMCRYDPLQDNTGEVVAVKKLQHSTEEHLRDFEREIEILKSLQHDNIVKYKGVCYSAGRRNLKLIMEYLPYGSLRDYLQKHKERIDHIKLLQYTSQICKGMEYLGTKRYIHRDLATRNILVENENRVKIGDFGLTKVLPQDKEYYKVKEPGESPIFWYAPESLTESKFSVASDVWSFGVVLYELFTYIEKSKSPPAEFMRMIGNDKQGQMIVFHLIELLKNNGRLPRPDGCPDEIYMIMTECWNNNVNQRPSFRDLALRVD
Protocol: as §1, §2

Row | SMILES | EC50 [1] | Ki [2] | Ki [3]
1 | CCc1cnn(C2(CC#N)CN(c3cccn4nc(Nc5cnn(CC(=O)N6CCN(C)CC6)c5)nc34)C2)c1 [Example 1, 2-[3-(4-ethyl-1H-pyrazol-1-yl)-1-[2-([1-[2-(4-methylpiperazin-1-yl)-2-oxoethyl]-1H-pyrazol-4-yl]amino)-[1,2,4]triazolo[1,5-a]pyridin-8-yl]azetidin-3-yl]acetonitrile] | 29 nM | 0.8 nM | 2 nM
2 | CN1CCN(C(=O)Cn2cc(Nc3nc4c(N5CC(CC#N)(Cc6ccccc6)C5)cccn4n3)cn2)CC1 [Example 26, 2-[3-benzyl-1-[2-[[1-[2-(4-methylpiperazin-1-yl)-2-oxo-ethyl]pyrazol-4-yl]amino]-[1,2,4]triazolo[1,5-a]pyridin-8-yl]azetidin-3-yl]acetonitrile] | 42 nM | 0.4 nM | 2.1 nM
3 | CCc1cnn(C2(CC#N)CN(c3cccn4nc(Nc5ccc(C(=O)N6CC7(CCN(C8COC8)CC7)C6)cc5)nc34)C2)c1 [Example 86, 2-[3-(4-ethylpyrazol-1-yl)-1-[2-[4-[7-(oxetan-3-yl)-2,7-diazaspiro[3.5]nonane-2-carbonyl]anilino]-[1,2,4]triazolo[1,5-a]pyridin-8-yl]azetidin-3-yl]acetonitrile] | 11 nM | 0.2 nM | 0.2 nM
4 | CN(CC1(C#N)CC1)C1CCN(C(=O)Cn2cc(Nc3nc4c(N5CC(CC#N)(c6cccc(Cl)c6)C5)cccn4n3)cn2)CC1 [Example 100, 1-[[[1-[2-[4-[[8-[3-(3-chlorophenyl)-3-(cyanomethyl)azetidin-1-yl]-[1,2,4]triazolo[1,5-a]pyridin-2-yl]amino]pyrazol-1-yl]acetyl]-4-piperidyl]-methyl-amino]methyl]cyclopropane carbonitrile] | 26 nM | 0.3 nM | 1.5 nM
5 | CCc1cnn(C2(CC#N)CN(c3cccn4nc(Nc5ccc(C(=O)N6CC7(CCN(C)CC7)C6)cc5)nc34)C2)c1 [Example 85, 2-[3-(4-ethylpyrazol-1-yl)-1-[2-[4-(7-methyl-2,7-diazaspiro[3.5]nonane-2-carbonyl)anilino]-[1,2,4]triazolo[1,5-a]pyridin-8-yl]azetidin-3-yl]acetonitrile] | 197 nM | 1.1 nM | 9.3 nM
6 | CN(CC(C)(C)C#N)C1CCN(C(=O)Cn2cc(Nc3nc4c(N5CC(CC#N)(n6cc(C(F)(F)F)cn6)C5)cccn4n3)cn2)CC1 [Example 108, 3-[[1-[2-[4-[[8-[3-(cyanomethyl)-3-[4-(trifluoromethyl)pyrazol-1-yl]azetidin-1-yl]-[1,2,4]triazolo[1,5-a]pyridin-2-yl]amino]pyrazol-1-yl]acetyl]-4-piperidyl]-methyl-amino]-2,2-dimethyl-propanenitrile;formic acid] | 37 nM | 0.6 nM | 0.4 nM
7 | COc1cnn(C2(CC#N)CN(c3cccn4nc(Nc5cnn(CC(=O)N6CCN(C)CC6)c5)nc34)C2)c1 [Example 28, 2-[3-(4-methoxypyrazol-1-yl)-1-[2-[[1-[2-(4-methylpiperazin-1-yl)-2-oxo-ethyl]pyrazol-4-yl]amino]-[1,2,4]triazolo[1,5-a]pyridin-8-yl]azetidin-3-yl]acetonitrile] | 54 nM | 0.4 nM | 1.4 nM
8 | CN1CCN(C(=O)Cn2cc(Nc3nc4c(N5CC(CC#N)(n6cc(CNCC(F)(F)F)cn6)C5)cccn4n3)cn2)CC1 [Example 48] | 33 nM | 0.5 nM | 1.5 nM
9 | CN1CCN(C(=O)Cn2cc(Nc3nc4c(N5CC(CC#N)(n6cc(CO)cn6)C5)cccn4n3)cn2)CC1 [Example 20, 2-[3-[4-(hydroxymethyl)pyrazol-1-yl]-1-[2-[[1-[2-(4-methylpiperazin-1-yl)-2-oxo-ethyl]pyrazol-4-yl]amino]-[1,2,4]triazolo[1,5-a]pyridin-8-yl]azetidin-3-yl]acetonitrile] | > 1000 nM | 1.2 nM | 9.6 nM
10 | CCc1cnn(C2(CC#N)CN(c3cccn4nc(Nc5cnn[nH]5)nc34)C2)c1 [Example 152, 2-(1-(2-((1H-1,2,3-triazol-5-yl)amino)-[1,2,4]triazolo[1,5-a]pyridin-8-yl)-3-(4-ethyl-1H-pyrazol-1-yl)azetidin-3-yl)acetonitrile] | 5 nM | 0.7 nM | 0.1 nM
11 | CCc1cnn(C2(CC#N)CN(c3cccn4nc(Nc5ccc(CC(=O)N6CCN(C)CC6)nc5)nc34)C2)c1 [Example 74] | 20 nM | 0.4 nM | 1.8 nM
12 | CN1CCN(C(=O)Cn2cc(Nc3nc4c(N5CC(CC#N)(n6cc(-c7ccccc7)cn6)C5)cccn4n3)cn2)CC1 [Example 21, formic acid;2-[1-[2-[[1-[2-(4-methylpiperazin-1-yl)-2-oxo-ethyl]pyrazol-4-yl]amino]-[1,2,4]triazolo[1,5-a]pyridin-8-yl]-3-(4-phenylpyrazol-1-yl)azetidin-3-yl]acetonitrile] | 43 nM | 1.1 nM | 7.7 nM
13 | CCc1cnn(C2(CC#N)CN(c3cccn4nc(Nc5cnn(CC(=O)N6CCC(CN7CCN(CC(=O)N(C)C)CC7)CC6)c5)nc34)C2)c1 [Example 42, 2-[4-[[1-[2-[4-[[8-[3-(cyanomethyl)-3-(4-ethylpyrazol-1-yl)azetidin-1-yl]-[1,2,4]triazolo[1,5-a]pyridin-2-yl]amino]pyrazol-1-yl]acetyl]-4-piperidyl]methyl]piperazin-1-yl]-N,N-dimethyl-acetamide] | 42 nM | 0.4 nM | 2.2 nM
14 | CSc1cnn(C2(CC#N)CN(c3cccn4nc(Nc5cnn(C)c5)nc34)C2)c1 [Example 147, 2-[1-[2-[(1-methylpyrazol-4-yl)amino]-[1,2,4]triazolo[1,5-a]pyridin-8-yl]-3-(4-methylsulfanylpyrazol-1-yl)azetidin-3-yl]acetonitrile] | 10 nM | 0.3 nM | 0.6 nM
15 | CN1CCN(C(=O)Cc2ccc(Nc3nc4c(N5CC(CC#N)(n6cc(C(F)(F)F)cn6)C5)cccn4n3)cc2)CC1 [Example 116, formic acid;2-[1-[2-[4-[2-(4-methylpiperazin-1-yl)-2-oxo-ethyl]anilino]-[1,2,4]triazolo[1,5-a]pyridin-8-yl]-3-[4-(trifluoromethyl)pyrazol-1-yl]azetidin-3-yl]acetonitrile] | 90 nM | 0.6 nM | 4 nM
16 | N#CCC1(n2cc(C(F)(F)F)cn2)CN(c2cccn3nc(Nc4cccc(C(=O)N5CCC(N6CCOCC6)CC5)c4)nc23)C1 [Example 112, formic acid;2-[1-[2-[3-(4-morpholinopiperidine-1-carbonyl)anilino]-[1,2,4]triazolo[1,5-a]pyridin-8-yl]-3-[4-(trifluoromethyl)pyrazol-1-yl]azetidin-3-yl]acetonitrile] | 69 nM | 1 nM | 4.6 nM
17 | CN1CCN(C(=O)Cn2cc(Nc3nc4c(N5CC(CC#N)(N6CCC(F)(F)CC6)C5)cccn4n3)cn2)CC1 [Example 12, 2-[3-(4,4-difluoro-1-piperidyl)-1-[2-[[1-[2-(4-methylpiperazin-1-yl)-2-oxo-ethyl]pyrazol-4-yl]amino]-[1,2,4]triazolo[1,5-a]pyridin-8-yl]azetidin-3-yl]acetonitrile] | 27 nM | 0.9 nM | 2.4 nM
